Test results taken from ChEMBL document CHEMBL3853308, “Condensation of Macrocyclic Polyketides Produced by Penicillium sp. DRF2 with Mercaptopyruvate Represents a New Fungal Detoxification Pathway” (J Nat Prod, 2016).

How the values were obtained:
[1] = Cytotoxicity against human MCF10A cells at 7.8 to 1000 uM after 24 hrs by XTT assay; type: toxicity, cell-based; details: mcf-10a
[2] = Cytotoxicity against human A549 cells after 24 hrs by XTT assay; type: functional, cell-based; details: A549, 24 h
[3] = Cytotoxicity against human HeLa cells after 24 hrs by XTT assay; type: functional, cell-based
[4] = Cytotoxicity against human MCF7 cells after 24 hrs by XTT assay; details: MCF7, 24 h

Row | Structure (SMILES) | Activity [1] | IC50 [2] | IC50 [3] | IC50 [4]
1 | C[C@H]1CCC(=O)/C=C/C(=O)c2c(O)cc(O)cc2CC(=O)O1 | Non-Toxic | – | – | –
2 | COC(=O)[C@@]1(O)CS[C@H]2CCC[C@H](C)OC(=O)Cc3cc(O)cc(O)c3C(=O)[C@@H]21 | Non-Toxic | – | – | –
3 | C[C@H]1CCC[C@@H]2SC[C@](O)(C(=O)O)[C@H]2C(=O)c2c(O)cc(O)cc2CC(=O)O1 | Non-Toxic | – | – | –
4 | C[C@H]1CCC[C@H]2O[C@H]2C(=O)c2c(O)cc(O)cc2CC(=O)O1 | Non-Toxic | – | – | –
5 | COc1cccc2c1C(=O)c1c(O)c3c(c(O)c1C2=O)C[C@@](O)(C(=O)CO)C[C@@H]3O[C@H]1C[C@H](N)[C@H](O)[C@H](C)O1 [DOXORUBICIN] | – | 190 nM | 140 nM | 120 nM
